Key:
Type in all cases: in vivo
canola seed [1] = test: Canola seed treatment, soil emergence: ABA-dose x benzyladenine (as Maxcel) dose factorial
Method: (§1) The seed was planted in plastic boxes containing 1 kg of typical agricultural silt loam. One hundred seeds were planted 2 cm deep in each plastic box, and the soil in the box was adjusted to 21% soil moisture (wet-weight basis). Two replications of the experiment were incubated under constant light in a 10° C. chamber. The soil temperature averaged 12.6° C. The boxes were watered up to the correct weight every 1-2 days, and checked for emergence. Counts of seedlings were continued until it became clear that emergence had ceased (28 days). The final count of emerged seedlings was expressed as a percentage of the 100 seeds planted.
(§2) The daily counts were converted to proportions of the final emergence of the box, and a Gompertz curve was fitted to the data from each box using SAS Proc NLIN. From the parameters of the model, median emergence time (T50) and quartile range (Qrange) were estimated for each box. Analysis of variance was performed and means calculated for each of the three responses (Final emergence, T50, Qrange).
The experiment was set up as an ABA-dose x benzyladenine-dose factorial experiment, with four doses of ABA (0, 25, 50 and- 100 g/cwt) and three doses of benzyladenine (0, 1 and 5 g/cwt) for a total of 12 treatment combinations. The treatments were made up in 1 ml samples of experimental aqueous seed treatment slurry. ABA was added in the form of a water solution of the ammonium salt. Benzyladenine was added in the form of Maxcel. Treatments receiving less than the maximum amount of Maxcel, received an appropriate amount of Maxcel blank formulation, so that each slurry sample was identical with regard to Maxcel inert ingredients. All of the seed treatment slurry samples contained CF-Clear film-forming agent and Colorcoat Red (Becker Underwood), each at 1 oz/cwt, and 0.167 oz/cwt Maxim XL fungicide (Syngenta). The slurry application volume was 40 oz/cwt (cwt=100 lbs of seed). Ten gram samples of canola seed were treated with the experimental slurries using a Hege 11 seed treater with a six-inch bowl.
The seed was germinated and data analyzed as described under Example 1.

canola seed [2] = test: Canola seed treatment, soil emergence: ABA-dose x benzyladenine (technical powder) dose factorial
Method: The experiment was set up as an ABA-dose×BA-dose factorial experiment, with four doses of ABA (0, 25, 50, and 100 g/cwt) and four doses of benzyladenine (0, 1, 5 and 25 g/cwt) for a total of 16 treatment combinations. The treatments were made up in 1 ml samples of experimental aqueous seed treatment slurry. ABA was added in the form of a water solution of the ammonium salt. Benzyladenine was added as technical powder. Ten μl Tween-20 were added to each sample to help wet and suspend the benzyladenine powder. All of the seed treatment slurry samples contained CF-Clear film-forming agent and Color Coat Red (Becker Underwood), each at 1 oz/cwt, and 0.167 oz/cwt Maxim XL fungicide (Syngenta). The slurry application volume was 40 […]=100 lbs of seed). Ten gram samples of canola seed were treated with the experimental slurries using a Hege 11 seed treater with a six-inch bowl. The seed was planted in plastic boxes containing 1 kg of typical agricultural silt loam. One hundred seeds were planted 2 cm deep in each plastic box, and the soil in the box was adjusted to 21% soil moisture (wet-weight basis). Two replications of the experiment were incubated under constant light in a 10° C. chamber. The soil temperature averaged 12.6° C. The boxes were watered up to the correct weight every 1-2 days, and checked for emergence. Counts of seedlings were continued until it became clear that emergence had ceased (28 days). The final count of emerged seedlings was expressed as a percentage of the 100 seeds planted. The daily counts were converted to proportions of the final emergence of the box, and a Gompertz curve was fitted to the data from each box using SAS Proc NLIN. […] Analysis of variance was performed and means calculated for each of the three responses (Final emergence, […]).

canola seed [3] = test: Canola seed treatment, soil emergence: ABA-dose x CPPU (as Prestige) dose factorial
Method: as §1, §2
The experiment was set up as an ABA-dose×CPPU-dose factorial experiment, with four doses of ABA (0, 25, 50 and 100 g/cwt) and […] doses of CPPU (0, 0.04, 0.2 and 1 g/cwt) for a total of 16 treatment combinations. The treatments were made up in 1 ml samples of experimental aqueous seed treatment slurry. ABA was added as the free acid. CPPU was added in the form of Prestige®. Treatments receiving less than the maximum amount of Prestige, received an appropriate amount of Prestige blank formulation, so that each slurry sample was identical with regard to Prestige inert ingredients. All of the seed treatment slurry samples contained CF-Clear film-forming agent and Colorcoat Red (Becker Underwood), each at 1 oz/cwt, and 0.167 oz/cwt Maxim XL fungicide (Syngenta). The slurry application volume was 40 oz/cwt (cwt=100 lbs of seed). Ten gram samples of canola seed were treated with the experimental slurries using a Hege 11 seed treater with a six-inch bowl.
The seed was germinated and data analyzed as described under Example 1, except that emergence, being unusually low in this trial, rendered the quartile range estimates unreliable. Therefore, quartile range values are not shown.

canola seed [4] = test: Canola seed treatment, soil emergence: ABA-dose x GA4/7 dose factorial; conditions: for Final emergence / QR / T50: GA4/7 dose 0 g/cwt
Method: The experiment was set up as an ABA-dose×GA4/7-dose factorial experiment, with four doses of ABA (0, 25, 50 and 100 g/cwt) and […] doses of GA4/7 (0, 1, 5 and 25 g/cwt) for a total of 16 treatment combinations. The treatments were made up in 1 ml samples of experimental aqueous seed treatment slurry. ABA and GA4/7 were added as the free acid technical powders. All of the seed treatment slurry samples contained CF-Clear film-forming agent and Colorcoat Red (Becker Underwood), each at 1 oz/cwt, and 0.167 oz/cwt Maxim XL fungicide (Syngenta). The slurry application volume was 40 oz/cwt (cwt=100 lbs of seed). Ten gram samples of canola seed were treated with the experimental slurries using a Hege 11 seed treater with a six-inch bowl.

[5] = ABA dose 0 g/cwt, Benzyladenine dose 1 g/cwt (in the form of Maxcel)
[6] = ABA dose 0 g/cwt, Benzyladenine dose 5 g/cwt (in the form of Maxcel)
[7] = ABA dose 0 g/cwt, Benzyladenine dose 1 g/cwt (technical powder)
[8] = ABA dose 0 g/cwt, Benzyladenine dose 5 g/cwt (technical powder)
[9] = ABA dose 0 g/cwt, Benzyladenine dose 25 g/cwt (technical powder)
[10] = ABA dose 0 g/cwt, CPPU dose 0.04 g/cwt (in the form of Prestige)
[11] = ABA dose 0 g/cwt, CPPU dose 0.2 g/cwt (in the form of Prestige)
[12] = ABA dose 0 g/cwt, CPPU dose 1 g/cwt (in the form of Prestige)
[13] = ABA (ammonium salt) dose 25 g/cwt, Benzyladenine dose 0 g/cwt (Maxcel blank)
[14] = ABA (ammonium salt) dose 50 g/cwt, Benzyladenine dose 0 g/cwt (Maxcel blank)
[15] = ABA (ammonium salt) dose 100 g/cwt, Benzyladenine dose 0 g/cwt (Maxcel blank)
[16] = ABA (ammonium salt) dose 25 g/cwt, Benzyladenine dose 0 g/cwt
[17] = ABA (ammonium salt) dose 50 g/cwt, Benzyladenine dose 0 g/cwt
[18] = ABA (ammonium salt) dose 100 g/cwt, Benzyladenine dose 0 g/cwt
[19] = ABA (free acid) dose 25 g/cwt, CPPU dose 0 g/cwt (Prestige blank)
[20] = ABA (free acid) dose 50 g/cwt, CPPU dose 0 g/cwt (Prestige blank)
[21] = ABA (free acid) dose 100 g/cwt, CPPU dose 0 g/cwt (Prestige blank)

## c1ccc(CNc2[nH]cnc3ncnc2-3)cc1 [Benzyladenine, N^6-phenylmethyl-1H-purin-6-amine]
Canola seed [1]; [5]
  Final emergence: 97.5%
  Qrange: 1.84 days
  T50: 6.02 days
Canola seed [1]; [6]
  Final emergence: 97.1%
  Qrange: 1.77 days
  T50: 6.09 days
Canola seed [2]; [7]
  Final emergence: 98.0%
  Qrange: 1.30 days
  T50: 6.37 days
Canola seed [2]; [8]
  Final emergence: 91.6%
  Qrange: 2.36 days
  T50: 6.76 days
Canola seed [2]; [9]
  Final emergence: 89.9%
  Qrange: 3.02 days
  T50: 7.88 days

## O=C(Nc1ccccc1)Nc1ccnc(Cl)c1 [CPPU]
Canola seed [3]; [10]
  Final emergence: 80.3%
  T50: 7.12 days
Canola seed [3]; [11]
  Final emergence: 78.1%
  T50: 7.48 days
Canola seed [3]; [12]
  Final emergence: 77.6%
  T50: 8.30 days

## S-(+)- abscisic acid [ABA]
Canola seed [1]; [13]
  Final emergence: 92.9%
  Qrange: 2.06 days
  T50: 8.17 days
Canola seed [1]; [14]
  Final emergence: 91.4%
  Qrange: 3.74 days
  T50: 10.57 days
Canola seed [1]; [15]
  Final emergence: 49.5%
  Qrange: 5.84 days
  T50: 13.61 days
Canola seed [1]; ABA at a dose of 100 g/cwt
  Final emergence: roughly cut in half
Canola seed [2]; [16]
  Final emergence: 92.3%
  Qrange: 3.26 days
  T50: 9.15 days
Canola seed [2]; [17]
  Final emergence: 68.9%
  Qrange: 4.27 days
  T50: 11.20 days
Canola seed [2]; [18]
  Final emergence: 53.5%
  Qrange: 4.27 days
  T50: 12.74 days
Canola seed [2]; ABA at a dose of 100 g/cwt
  Final emergence: roughly cut in half
Canola seed [3]; [19]
  Final emergence: 84.0%
  T50: 10.4 days
Canola seed [3]; [20]
  Final emergence: 66.0%
  T50: 12.16 days
Canola seed [3]; [21]
  Final emergence: 48.0%
  T50: 16.48 days
Canola seed [3]; high doses of ABA
  emergence: significant and important reduction in emergence
Canola seed [4]; ABA (free acid) dose 25 g/cwt
  Final emergence: 84.0%
  QR: 3.33 days
  T50: 10.42 days
Canola seed [4]; ABA (free acid) dose 50 g/cwt
  Final emergence: 66.0%
  QR: 3.38 days
  T50: 12.16 days
Canola seed [4]; ABA (free acid) dose 100 g/cwt
  Final emergence: 48.0%
  QR: 5.69 days
  T50: 16.48 days
Canola seed [4]; high doses of ABA alone
  emergence: significant and important reduction in emergence
